# Results taken from US7589121B2, “Use of furan alkyls for preparing a drug for treating obesity and cosmetically treating overweight” (priority 2004, dated 2009).
# How the values were obtained:
# [1] = tested on: ME, FAS, ACC (fatty acid synthesis); test: Analysis of mRNAs in the liver (Q-RT-PCR): ME, FAS, ACC; assay type: in vivo, mice; settings: TZD
# Method: (§1) In the liver, the mRNA expressions of 8 genes were determined in 5 mice of each group using real-time Q-RT-PCR analysis.
# [2] = tested on: mice fattened on a high fat/high sucrose diet (HF/HS); test: Weight gain / weight of mice on HF/HS diet; assay type: in vivo; settings: curative group; TZD added to HF/HS food
# Method: We used adult mice (aged 6 weeks) of masculine gender fattened on a high fat/high sucrose diet (HF/HS). Feeding with the HF/HS diet began on mice aged 6 weeks and continued throughout the period of the study. The study was conducted along 2 axes: • prevention: the product was administered as soon as feeding began with the HF/HS diet; • management (curative): the product was administered 12 weeks after the start of the HF/HS diet. Total treatment time (preventive and curative): 23 weeks.
# Each experimental group comprised 10 mice.
# [3] = tested on: PGC-1 (mitochondria biogenesis); test: Analysis of mRNAs in the muscles and BAT: PGC-1; assay type: in vivo, mice; settings: TZD
# Method: In the brown adipose tissue (BAT) and in the muscles, the mRNA expression of 3 genes was determined in 5 mice of each group by real-time Q-RTR-PCR analysis.
# PEPCK (target PPARγ) = test: Analysis of mRNAs in the liver (Q-RT-PCR): PEPCK; assay type: in vivo, mice; settings: TZD
# Method: as §1
# ACO (target PPARα) = test: Analysis of mRNAs in the liver (Q-RT-PCR): ACO; assay type: in vivo, mice; settings: TZD
# Method: as §1
# [4] = tested on: GSH-S-transferase (target PXR); test: Analysis of mRNAs in the liver (Q-RT-PCR): GSH-S-transferase; assay type: in vivo, mice; settings: TZD
# Method: as §1
# CYP7A1 = test: Analysis of mRNAs in the liver (Q-RT-PCR): CYP7A1; assay type: in vivo, mice; settings: TZD
# Method: as §1
compound,measurement,setting,value
"CN(CCOc1ccc(CC2SC(=O)NC2=O)cc1)c1ccccn1 (stereo not shown) [TZD, Rosiglitazone]","ME, FAS, ACC (fatty acid synthesis) mRNA, liver",[1],⇑⇑
same,weight loss of overweight mice,[2],did not cause the overweight mice to lose weight
same,"PGC-1 (mitochondria biogenesis) mRNA, MUSCLE/BAT",[3],⇑ (muscle)
same,"PEPCK (target PPARγ) mRNA, liver",PEPCK (target PPARγ),⇑
same,"ACO (target PPARα) mRNA, liver",ACO (target PPARα),⇑
same,"GSH-S-transferase (target PXR) mRNA, liver",[4],⇑
same,"CYP7A1 (conversion oxysterol into biliary acids) mRNA, liver",CYP7A1,⇑⇑
